Several values for one entry are separate records, joined by “and”; a condition that tells them apart may be missing. Identical values can stand only once. Entries after “also recorded” stand apart in the source; their conditions may differ.
How the values were obtained:
[1] = Urinary recovery after oral administration of bracken extract or dried bracken fern; assay type: in vivo, Jersey heifers; conditions: for PTB recovered in urine: oral bracken extract or dried fern, within 24 hours
Experimental: Oral exposure, bracken extract. Bracken extract was administered orally by gavage in Experiment 2 (170 and 172 mL) and Experiment 5 (820 and 850 mL), to obtain PTA doses of 0.41 and 2 mg kg^-1 b.w (1.025 and 5.000 μmoles kg^-1), respectively. Blood and urine samples were collected up to 48 hours after gavage and samples were processed and stored as described previously.
Oral exposure, dried bracken fern. In Experiment 3, dried bracken fern was milled to a fine powder. Immediately before administration, the powder was mixed with water to produce a slurry (15 g of bracken per 100 mL of water). The slurry was administered orally by gavage (400 mL and 380 mL) corresponding to a PTA dose of 1.6 mg kg^-1 b.w (4 μmoles kg^-1). Blood and urine samples were collected up to 72 hours after gavage and the samples were processed and stored as described above.
PTA and PTB were analysed by LC-MS after purification using solid phase extraction (SPE) columns as reported in Aranha et al.. The limit of quantification of PTA and PTB in plasma was 3.0 x 10^−3 μM and 9.30 x 10^−3 μM, respectively. Limit of quantifications in diluted urine was 13 x 10^−3 μM for PTA and 8.28 x 10^−3μM for PTB.

[2] = One-week repeated dose trial with dried bracken, plasma toxicokinetics; assay type: in vivo, Jersey heifers; conditions: for AUC0-∞ / MTT: PTB in plasma, daily PTA dose 2 mg kg^-1
From the text: The two heifers used for the single dose trials were also used for the one week repeated dose study together with an additional two Jersey heifers (no’s 1550 and 1567; Harald Hansen Eftf. I/S, Slangerup, Denmark) weighing 163 to 237 kg. The additional two heifers had never been exposed to PTA or to bracken fern. A wash-out period of 20 days between the last single-dose experiment and the one week repeated dose trial was established for heifers no’s 4848 and 4849.
All four heifers were fed dried bracken powder (top-dressed and molasses added). twice a day during a period of 7 days providing a daily PTA dose of 2 mg kg^-1 (5 μmoles kg^-1). On Day 8, the heifers no 4848 and no 1567 were additionally fed in the morning and euthanized 1 hour after using a captive bolt pistol and exsanguination. The two other heifers (no 4849 and no 1550) were euthanized 15 h after the last dose on Day 7 (Fig 2).
Blank blood samples were collected before the first dose was given. On Day 1 and Day 7 blood samples were collected after the morning dose at predetermined time points between 1 and 6 h after dosing (1, 2, 3, 5 and 6 hours). On Day 2 to Day 6 blood samples were collected daily 1 hour after 50% or more of the morning feed had been ingested, since the bracken fern was not eaten instantly. On Day 8 blood samples were collected just before euthanasia. Blood samples were processed and stored as described above.
Concentrations of PTA in plasma of individual animals were evaluated by non-compartmental analysis. Toxicokinetic variables were calculated using standard kinetic equations. The area under the curve (AUC) and the area under the first moment curve (AUMC) were determined using combined linear and natural logarithm trapezoidal rules. The terminal elimination rate was determined using the last three data points of the curve.

[3] = cited from earlier work
[4] = Presence of glucuronides and sulphates in urine (B-glucuronidase/arylsulfatase incubation); assay type: in vivo, Jersey heifers; conditions: urine after iv PTA
Experimental: The presence of glucuronides and sulphates was assessed by incubating 1 ml of buffered urine samples in 0.1 M acetic acid buffer (pH 5) with or without addition of 100 μl of B-glucuronidase/arylsulfatase at 37°C for 3 hours on a shaking water bath. Afterwards, an aliquot of 950 μl of each samples were cleaned on the Oasis HLB cartridges and analysed as described for urine samples [22].

[5] = Incubation of bracken extract in rumen liquid, in vitro; assay type: in vitro ADME, Jersey cows; conditions: boiled (sterilized) or pre-frozen rumen fluid
[6] = as above; assay type: in vitro ADME, Jersey cows; conditions: for PTB concentration in rumen liquid: initial PTA 17 μM
Experimental: Samples of rumen contents were collected from two rumen fistulated Jersey cows. The cows were fed daily with 6 kg of complete feedingstuff (Danish Ragna Grønmix; Danish Agro, Karise, Denmark) and 2 kg of hay. Barley straw and water were provided ad libitum. The rumen liquid fraction was obtained by passing the digest through a 250 μm nylon filter. From each cow, 150 mL rumen liquid was pre-incubated at 37°C under CO2 atmosphere for 10 min before 5 mL of bracken extract was added in order to obtain an initial PTA concentration of 17 μM. PTA stability was assessed by removal of 2.5 mL sample for PTA determination after incubation for 0, 5, 15, 30, 60 and 120 min at 37 °C. The sample was immediately centrifuged for 3 min at 8,500 g and analysed following the method of Aranha et al.. The pH in rumen liquid was determined at the beginning and termination of the experiment.
Rumen liquid samples were cleaned on HLB cartridges and processed as plasma samples. PTA and PTB calibration curves were prepared in ruminal fluid deactivated by boiling for 5 minutes. The recovery of PTA and PTB in ruminal fluid was 74% (± 0.5%) and 80% (± 1.2%), respectively.

[7] = set-up: method as in PMID 21456622; conditions: calves fed P. esculentum, PTA dose 4.5 μmol kg^-1 b.w.; cited from earlier work
[8] = cows fed bracken for 5 days, PTA dose 23 μmol kg^-1
[9] = Day 1, heifer 1550, dried bracken twice a day
[10] = Day 1, heifer 1567, dried bracken twice a day
[11] = Day 1, heifer 4848, dried bracken twice a day
[12] = Day 1, heifer 4849, dried bracken twice a day
[13] = Day 7, heifer 1550, dried bracken twice a day
[14] = Day 7, heifer 1567, dried bracken twice a day
[15] = Day 7, heifer 4848, dried bracken twice a day
[16] = Day 7, heifer 4849, dried bracken twice a day

Question: What does the source list for CC1=C[C@]2(O[C@@H]3O[C@H](CO)[C@@H](O)[C@H](O)[C@H]3O)C[C@@H](C)C(=O)[C@@H]2[C@](C)(O)C12CC2 [PTA, (2'R,3a'R,4'S,7a'R)-4'-Hydroxy-2',4',6'-trimethyl-3'-oxo-2',3',3a',4'-tetrahydrospiro[cyclopropane-1,5'-inden]-7a'(1'H)-yl β-D-glucopyranoside]?
Answer: PTA in urine after oral administration ([1]; bracken extract or dried bracken fern): neither detected; PTA in plasma after repeated oral administration ([2]; dried bracken, 7 days): not detected; time after feeding bracken at which PTA was found in milk [3]: 38 h; PTA excreted in milk as share of the dose [3, 8]: 9.6 % of the dose; plateau of PTA excreted in milk [3, 8]: 50 µM; PTA concentration in milk ([3]; one cow fed 6 kg freshly cut bracken daily for 7 days, PTA 540 μmol day^-1): 0.28 µM; conjugation with glucuronic acid or sulphate in urine [4]: not conjugated with either glucuronic acid or sulphate; degradation of PTA in boiled or pre-frozen rumen fluid [5]: did not reveal any degradation; also recorded: did not degrade PTA; stability of PTA in fresh rumen fluid (in words) ([6]; fresh rumen fluid, 37 °C, pH 6.6): detectable in rumen fluid from cow no 1 only immediately after start; also recorded: lost within few minutes; time during which PTA was observed in rumen liquid ([6]; fresh rumen liquid, 17 μM, 37 °C): ≤ 5 min

Question: With Cc1cc2c(c(C)c1CCO)C(=O)[C@H](C)C2 [PTB, pterosin B] as the compound, how does the “PTB recovered in urine” value [1] read?
Answer: up to 7 % of the dose

Question: What about the “PTB recovered in urine” value ([1]; listed as Pterosin B) of the same compound?
Answer: 7 % of the dose

Question: What about the “AUC0-∞” value ([2]; Day 1, average of four heifers) of the same compound?
Answer: 0.774 µM·h

Question: What about the MTT ([2]; Day 1, average of four heifers) of the same compound?
Answer: 3.8 h

Question: And the “AUC0-∞” value [2, 9]?
Answer: 0.386 µM·h

Question: What about the MTT [2, 9] of the same compound?
Answer: 2.3 h

Question: What about the “AUC0-∞” value [2, 10] of the same compound?
Answer: 1.248 µM·h

Question: And the MTT [2, 10]?
Answer: 4.4 h

Question: What about the “AUC0-∞” value [2, 11] of the same compound?
Answer: 0.873 µM·h

Question: And the MTT [2, 11]?
Answer: 4.6 h

Question: And the “AUC0-∞” value [2, 12]?
Answer: 0.591 µM·h

Question: And the MTT [2, 12]?
Answer: 3.9 h

Question: And the “AUC0-∞” value ([2]; Day 7, average of four heifers)?
Answer: 0.849 µM·h

Question: What about the MTT ([2]; Day 7, average of four heifers) of the same compound?
Answer: 3.4 h

Question: What about the “AUC0-∞” value [2, 13] of the same compound?
Answer: 0.606 µM·h

Question: And the MTT [2, 13]?
Answer: 3.2 h

Question: And the “AUC0-∞” value [2, 14]?
Answer: 1.264 µM·h

Question: And the MTT [2, 14]?
Answer: 3.6 h

Question: What about the “AUC0-∞” value [2, 15] of the same compound?
Answer: 0.968 µM·h

Question: And the MTT [2, 15]?
Answer: 3.9 h

Question: And the “AUC0-∞” value [2, 16]?
Answer: 0.558 µM·h

Question: What about the MTT [2, 16] of the same compound?
Answer: 3.0 h

Question: And the “transient peak of PTB in plasma as share of the PTA dose” value ([2]; after the morning dose)?
Answer: 10%

Question: And the “accumulation of PTB in the organism” value ([2]; mean AUC0-∞ Day 1 vs Day 7)?
Answer: not accumulated

Question: What about the “conjugation with glucuronic acid or sulphate in urine” value [4] of the same compound?
Answer: not conjugated with either glucuronic acid or sulphate

Question: What about the “peak concentration of PTB in plasma relative to the single dose study of this paper” value [7] of the same compound?
Answer: 26 times

Question: And the “PTB as share of the added PTA” value ([6]; 5 min after the start of incubation)?
Answer: 10%

Question: And the “PTB concentration in rumen liquid” value ([6]; after 120 min, 37 °C)?
Answer: 2.7 µM

Question: What about the “PTB as share of the added PTA” value ([6]; final sampling (120 min)) of the same compound?
Answer: 16%

Question: What about the “PTB concentration in rumen liquid” value ([6]; starting time, rumen liquid of two cows, 37 °C) of the same compound?
Answer: 1.35 µM and 1.62 µM

From article PMC6588243, “Fate of ptaquiloside—A bracken fern toxin—In cattle” (PLoS ONE, 2019)
